Measurements taken from article PMC9763333, “In vitro characterization of immune modulating drug-eluting immunobeads towards transarterial embolization in cancer” (Scientific Reports, 2022).
“And” between values parts separate entries of the source, which are not always exact repeats. Equal values may be shown once. “Also recorded” adds a separate entry of the source. Read-outs that look alike come from different tables or passages of the source.

Key:
Assay type in all cases: physicochemical
[1] = Drug solubilization by salt formation in acid; conditions: HPLC, two peaks observed
Method: The base form of each drug was suspended in deionized water and titrated with 0.1 N hydrochloric acid (Fisher Scientific, Hampton, NH) while stirring until all the base was solubilized and the volume adjusted to a final concentration of 2.5 mg/mL. The resulting solution was frozen, then lyophilized to yield solid drug-hydrochloride salt or used in its solubilized form for loading into DC Bead LUMI. […] Doxorubicin.HCl was readily solubilized and used without modification. […] A ZORBAX Eclipse Plus C8 reversed-phase column (Agilent) and UV detector at wavelength of 230 nm were used for GS-9620 analysis. The decomposition product of GS-9620 was analyzed with reversed phase high-performance liquid chromatography (Rp-HPLC) and LC/MS.

[2] = Drug loading into DC Bead LUMI
Method: DC Bead LUMI was analyzed for its elemental composition by MEDAC Inc. […] Drug loading was performed in triplicate as previously reported[45] with slight modifications. […] Washing of beads is often a critical step in drug release studies as any drug left unbound to the beads affects the release profile and exaggerates the early burst release. […] However, washing was discontinued for TLR drugs as drug was continually observed even after multiple washes. […] The amount of drug loaded at the specified time points was calculated by subtracting the amount of drug remaining from the initial amount of drug in the loading solution and the cumulative amount of drug withdrawn for sampling. The maximum drug loaded in the beads was calculated once no further change in the concentration in the loading solution could be measured and before washing the beads. The relative percent drug loaded was defined as the maximum amount of drug loaded as a percent of the amount of SO3^- ions available in the beads on a molar basis using the following formula and the results are presented as the mean ± SD.

[3] = Drug release from DC Bead LUMI in saline; conditions: for release in saline from DC Bead LUMI after multiple washes in deionized water: single replicates
Method: […] Briefly, drug-loaded DC Bead LUMI or LC Bead (62.5 µL) were placed in vessels with 50 mL of saline ([…], pH 7.4) and were agitated with upright rocking motion at a set maximum rocking speed of 10 (70 rpm) for 144 h at 37 °C using Ward's® Rotating Mixer. At scheduled time intervals identical to the loading time points, 1 mL of release media was withdrawn and used for drug quantification. To maintain 50 mL total elution volume, 1 mL of fresh saline pre heated to 37 °C was replaced at each timepoint. […] 2.4. The cumulative amount of drug released at each time point was calculated by multiplying the concentration of each sample aliquot by the total volume (50 mL) of release media and adding the sum of the amount of drug removed for sampling at prior time points. […] The 50 mL volume was chosen to ensure infinite sink conditions where the maximum possible concentration of eluted drug would be at least 10 times more dilute than the maximum solubility. This ensures the rate of release is not affected by solution concentration but is only a function of interactions of the bead, drug, and saline.

[4] = Washing of drug-loaded beads with deionized water and microscopic appearance
Method: Drug loading was performed in triplicate as previously reported[45] with slight modifications. […] Washing of beads is often a critical step in drug release studies as any drug left unbound to the beads affects the release profile and exaggerates the early burst release. […] However, washing was discontinued for TLR drugs as drug was continually observed even after multiple washes. […] The amount of drug loaded at the specified time points was calculated by subtracting the amount of drug remaining from the initial amount of drug in the loading solution and the cumulative amount of drug withdrawn for sampling. The maximum drug loaded in the beads was calculated once no further change in the concentration in the loading solution could be measured and before washing the beads. The relative percent drug loaded was defined as the maximum amount of drug loaded as a percent of the amount of SO3^- ions available in the beads on a molar basis using the following formula and the results are presented as the mean ± SD.

[5] = pKa measurement by triple titration in methanol–water co-solvent with Yasuda-Shedlovsky extrapolation; conditions: for pKa: methanol–water co-solvent, aqueous value by Yasuda-Shedlovsky extrapolation; for psKa1 / psKa2: methanol–water
Method: pKa measurements were performed by Pion Inc, UK Ltd using known methods as previously reported[47]–[50] or calculated by using software MoKa (Molecular Discovery, Borehamwood, Hertfordshire, UK, https://www.moldiscovery.com/software/moka/#references) or directly obtained from the literature. For GARD and DSR 6434, a triple titration was carried out under methanol–water co-solvent conditions from pH 2.0–12.0 at concentrations of 2.3–1.3 mM (the methanol mixing ratio varied from 49.0 to 28.9% w/w) and 1.5–0.9 mM (the methanol mixing ratio varied from 49.6 to 29.1% w/w), respectively.

With `CCCCOc1nc(N)c2c(n1)N(Cc1cccc(CN3CCCC3)c1)CC(=O)N2` [GS-9620] the “stability in the solubilizing conditions” value [1] was “partially decomposed; also recorded: not stable”.
With `CCNCc1nc2c(N)nc3ccccc3c2n1CC(C)(C)O` [GARD, gardiquimod] the “Relative percent drug loaded in DC Bead LUMI over time” value ([2]; 5 min, single replicates) was 55.2766% and 60.9514% and 46.1831%, the “Relative percent drug loaded in DC Bead LUMI over time” value ([2]; 15 min, single replicates) was 43.0802% and 66.0616% and 55.143% and the “Relative percent drug loaded in DC Bead LUMI over time” value ([2]; 30 min, single replicates) was 48.003% and 64.9413% and 48.1153%. The “Relative percent drug loaded in DC Bead LUMI over time” value ([2]; 45 min, single replicates) was 42.5221% and 54.7578% and 59.077%, the “Relative percent drug loaded in DC Bead LUMI over time” value ([2]; 60 min, single replicates) was 49.9393% and 67.8727% and 53.1769% and the “Relative percent drug loaded in DC Bead LUMI over time” value ([2]; 120 min, single replicates) was 71.3739% and 70.6276% and 67.3547%. The “Relative percent drug loaded in DC Bead LUMI over time” value ([2]; 180 min, single replicates) was 60.3259% and 72.9711% and 72.9791%, the “Relative percent drug loaded in DC Bead LUMI over time” value ([2]; 240 min, single replicates) was 61.2934% and 72.504% and 74.4803% and the “Relative percent drug loaded in DC Bead LUMI over time” value ([2]; 300 min, single replicates) was 61.9583% and 65.0576% and 73.7822%. For the same compound, the “Relative percent drug loaded in DC Bead LUMI over time” value ([2]; 360 min, single replicates) was 62.1239% and 73.4051% and 73.7491%, the “Relative percent drug loaded in DC Bead LUMI over time” value ([2]; 420 min, single replicates) was 57.6019% and 70.5665% and 69.0951% and the “Relative percent drug loaded in DC Bead LUMI over time” value ([2]; 480 min, single replicates) was 60.233% and 70.8296% and 71.2658%. For the same compound, the “Relative percent drug loaded in DC Bead LUMI over time” value ([2]; 1440 min, single replicates) was 61.7405% and 70.3053% and 72.3473%, the “Relative percent drug loaded in DC Bead LUMI over time” value ([2]; 2880 min, single replicates) was 58.2466% and 69.7502% and 67.5798% and the “Relative percent drug loaded in DC Bead LUMI over time” value ([2]; 4320 min, single replicates) was 62.5088% and 74.175% and 74.3147%. For the same compound, the “Relative percent drug loaded in DC Bead LUMI over time” value ([2]; 8640 min, single replicates) was 62.7357% and 73.7536% and 73.1477%, the “loading behaviour” value ([2]; DC Bead LUMI) was “Fast loading” and the “Relative percent drug loaded (maximum, percent of SO3− available on a molar basis)” value ([2]; DC Bead LUMI, mean (n = 3)) was 73% and 73.34%. For the same compound, the “equivalent of drug loaded to sulfonated bead” value ([2]; DC Bead LUMI, mean ± SD) was 0.21 ± 0.00 mM drug/ml beads, the Maximum drug loaded ([2]; DC Bead LUMI, mean ± SD, n = 3, base form except Dox (salt form)) was 65.97 ± 1.54 mg drug/ml beads and the “Maximum drug loaded (Triplicate), %” value ([2]; DC Bead LUMI, single replicates) was 71.3739% and 74.175% and 74.4803%. For the same compound, the “Drug: sulfonate” value ([2]; molar ratio at maximum loading, DC Bead LUMI) was 0.733, the “Theoretical maximum loading level based on SO3− contents” value ([2]; per mL DC Bead LUMI, assuming 1:1 drug to sulfonate) was 89.95 mg and the “release in saline from DC Bead LUMI after multiple washes in deionized water” value (from here on “release in saline from DC Bead LUMI”) ([3]; 5 min) was 13.8548 mg/mL of beads and 16.8316 mg/mL of beads and 16.696 mg/mL of beads. For the same compound, the “release in saline from DC Bead LUMI” value ([3]; 15 min) was 6.978 mg/mL of beads and 10.4756 mg/mL of beads and 7.4826 mg/mL of beads, the “release in saline from DC Bead LUMI” value ([3]; 30 min) was 11.5876 mg/mL of beads and 14.6655 mg/mL of beads and 10.6769 mg/mL of beads and the “release in saline from DC Bead LUMI” value ([3]; 45 min) was 12.1501 mg/mL of beads and 14.1614 mg/mL of beads and 16.9158 mg/mL of beads. The “release in saline from DC Bead LUMI” value ([3]; 60 min) was 12.3872 mg/mL of beads and 11.2006 mg/mL of beads and 10.7852 mg/mL of beads, the “release in saline from DC Bead LUMI” value ([3]; 120 min) was 6.495 mg/mL of beads and 18.2582 mg/mL of beads and 8.614 mg/mL of beads and the “release in saline from DC Bead LUMI” value ([3]; 180 min) was 13.4173 mg/mL of beads and 9.599 mg/mL of beads and 8.837 mg/mL of beads. For the same compound, the “release in saline from DC Bead LUMI” value ([3]; 240 min) was 11.2341 mg/mL of beads and 19.3333 mg/mL of beads and 19.2869 mg/mL of beads, the “release in saline from DC Bead LUMI” value ([3]; 300 min) was 11.4298 mg/mL of beads and 19.0264 mg/mL of beads and 20.0563 mg/mL of beads and the “release in saline from DC Bead LUMI” value ([3]; 360 min) was 14.8464 mg/mL of beads and 16.7671 mg/mL of beads and 17.7148 mg/mL of beads. The “release in saline from DC Bead LUMI” value ([3]; 420 min) was 10.7872 mg/mL of beads and 18.9583 mg/mL of beads and 16.16 mg/mL of beads, the “release in saline from DC Bead LUMI” value ([3]; 480 min) was 14.0597 mg/mL of beads and 15.9257 mg/mL of beads and 20.8469 mg/mL of beads and the “release in saline from DC Bead LUMI” value ([3]; 1440 min) was 16.384 mg/mL of beads and 22.102 mg/mL of beads and 14.1626 mg/mL of beads. For the same compound, the “release in saline from DC Bead LUMI” value ([3]; 2880 min) was 17.882 mg/mL of beads and 19.297 mg/mL of beads and 22.6822 mg/mL of beads, the “release in saline from DC Bead LUMI” value ([3]; 4320 min) was 17.16 mg/mL of beads and 21.3309 mg/mL of beads and 22.7224 mg/mL of beads and the “release in saline from DC Bead LUMI” value ([3]; 8640 min) was 16.9125 mg/mL of beads and 21.9345 mg/mL of beads and 17.7447 mg/mL of beads. The “release behaviour in saline” value ([3]; DC Bead LUMI) was “rapid release”, the “removal of drug from beads by repeated washing with deionized water” value ([4]; DC Bead LUMI) was “partially removed” and the “aggregation of drug during washing / elution” value ([4]; deionized water and saline, microscopy) was “absence of aggregated”. For the same compound, the pKa ([5]; read-out: pKa (first, measured)) was 7.02, the pKa ([5]; read-out: pKa (second, measured)) was 8.02 and the psKa1 ([5]; dielectric constant 56.8) was 6.81. The psKa2 ([5]; dielectric constant 56.8) was 7.83, the psKa1 ([5]; dielectric constant 61.6) was 6.89 and the psKa2 ([5]; dielectric constant 61.6) was 7.88. For the same compound, the psKa1 ([5]; dielectric constant 66) was 6.92 and the psKa2 ([5]; dielectric constant 66) was 7.94.
